Assay results as given in patent US20240307283A1, “COMPOSITIONS AND METHODS FOR DECREASING PIGMENTATION” (The General Hospital Corporation, priority 2021, published 2024).

Tests used:
NNT = assay: Immunoblot of NNT after redox modulators; type: cell-based, human; conditions: UACC257, NAC 5 mM, MitoTEMPO 20 μM, H2O2 100 μM, daily for 72 hours
Description: Immunoblotting: Whole-cell protein lysates were prepared using RIPA lysis buffer (Sigma-Aldrich, #R0278) supplemented with Protease and Phosphatase Inhibitor (ThermoFisher Scientific, #P178445). Protein concentrations were quantified using the Pierce BCA protein assay (ThermoFisher Scientific, #23225). Immunoblotting was performed by standard techniques using 4-15% Criterion TGX Precast Midi Protein gels (Bio-Rad Laboratories, #5671084) and transferring to 0.2 μm nitrocellulose membranes (Bio-Rad Laboratories, #1620112). Membranes were blocked with 5% non-fat milk (Boston BioProducts, #P-1400) in PBS containing 0.1% […] and incubated with one of the following primary antibodies at the indicated dilution (antibody sources are in the Key Resources Table): 1:20 dilution of anti-MITF monoclonal antibody CS, 1:1,000 dilution of anti-Tyrosinase clone T311, 1:1,000 dilution of anti-Mitofusin-2 antibody [6A8], 1:500 dilution of TRP2/DCT antibody, 1:1,000 dilution of anti-NNT antibody [8B4BB10], 1:1,000 dilution of anti-IDH1 ([…]) antibody, 1:1,000 dilution of p53 antibody [PAb 240], 1:1,000 dilution of TYRP1 antibody [EPR21960], 1:1,000 dilution of mouse monoclonal antibody Pmel17 (E-7), or 1:1,000 dilution of LC3B (D11) rabbit monoclonal antibody. Incubation with the appropriate secondary antibody followed, either a 1:5,000 dilution of donkey anti-Rabbit IgG-HRP or a 1:3,000 dilution of Amersham ECL mouse IgG, HRP. To verify equal loading of samples, membranes were re-probed with a 1:20,000 dilution of monoclonal anti-β-actin-peroxidase (Sigma Aldrich, #A3854). Protein bands were visualized using Western Lightning Plus ECL (PerkinElmer, #NEL105001EA) and quantified using ImageJ software (NIH).

human skin explants [1] = assay: Depigmentation of human skin explants by NNT activators; type: cell-based; conditions: after 36 hours, DMSO-based carrier, FIGS. 13A-B
Description: Skin samples considered surgical waste were obtained de-identified from healthy donors (IRB #2013P000093) undergoing reconstructive surgery, according to institutional regulations. Full thickness human abdominal skin explants were cultured in petri dishes with a solid phase and liquid phase phenol red free DMEM medium containing 20% penicillin/streptomycin/glutamine, 5% fungizone (Gibco), and 10% fetal bovine serum. Compounds were applied strictly on top of the explants, making sure no drip occurred into the underlying media. For UV irradiation experiments, a UV lamp (UV Products) was used at 1000 mJ/cm^2 UVB.
The ability of ASS, Usnic acid, 4-hexylresorcinol, candesartan, Nigericin, elaidylphosphocholine, hexitidine, naproxol, and Ginkgolic acid to depigment skin was tested in human skin explants. A DMSO-based carrier solution was used. DMSO was used as a negative control. […]

human skin = assay: Topical treatment of a human subject (skin type 2); type: in vivo; conditions: 100 uM in DMSO, 15 days, twice per day
Description: A human subject with skin type 2 was treated with Hexetidine 100 uM in DMSO for 15 days, twice per day, individual.

UACC257 cells = assay: siNNT-induced pigmentation with antioxidants, melanin content; type: cell-based, human; conditions: NAC 5 mM, MitoTEMPO 20 μM daily for 72 h; NADPH 0.1 M
Description: (§1) sIRNA transfection: A single treatment of 10 nmol/L of siRNA was delivered to a 60% confluent culture by transfection with Lipofectamine RNAiMAX (Life Technologies, #13778150) according to the manufacturer's recommendations. After 48-72 h of transfection, total RNA or protein was harvested. Melanin quantification: Equal numbers of cells were plated in 6-well plates. The cells were then harvested 72-96 hours post siRNA or NNT inhibitors compounds, as indicated in the legends, pelleted, washed in PBS and counted. 10^6 cells were used for measurement of protein concentration with the Pierce BCA protein assay (Thermo Fisher Scientific, #23225) and 10^6 cells were resuspended in 60 μl of 1 N NaOH solution and incubated at 60° C. for 2 h or until the melanin was completely dissolved. After cooling down to room temperature, samples were centrifuged at 500×g for 10 min and the supernatants were loaded onto a 96-well plate. The melanin content was determined by measuring the absorbance at 405 nm on an Envision plate reader, compared with a melanin standard (0 to 50 μg/ml; Sigma Aldrich, #M8631). Melanin content was expressed as micrograms per milligram of protein.

tyrosinase = assay: Cycloheximide chase assay of tyrosinase protein stability; type: cell-based, human; conditions: UACC257, 5 mM NAC, 0.1 mM NADPH, 20 μM MitoTEMPO for 48 h, then CHX
Description: Cycloheximide chase assay: 72 h after siRNA transfection (sicontrol or siNNT), UACC257 melanoma cells were treated with a protein synthesis inhibitor, cyclohexamide (CHX, Sigma Aldrich #C7698, 50 μg/ml), for the indicated times and then immediately subjected to immunoblotting for tyrosinase protein expression. The expression of tyrosinase was quantified using ImageJ software based on band intensities and normalized to the intensities of the corresponding β-actin bands. The normalized tyrosinase expression was then defined as relative tyrosinase expression by setting the mean values at t=0 in each experimental group to 1.0. […] The siRNA-transfected cells were cultured for an additional 48 h in the presence of these agents and then examined by the CHX chase assay as described above. pLJM-1-EGFP or pLJM1-NNT/FLAG was introduced into UACC257 cells using Lipofectamine 3000, 48 after transfection, the transfection medium was replaced with fresh medium containing DMSO or 10 μM MG132 (Sigma Aldrich #M8699) and pre-incubated for 6 h. Then. CHX was added to assess tyrosinase protein stability as described above.

[2] = tested on: primary human melanocytes; assay: Melanosome maturation by transmission electron microscopy; type: cell-based; conditions: NAC 5 mM or MitoTEMPO 20 μM; for siNNT-induced melanosome maturation: daily for 96 h; for total number of melanosomes per um^2: daily for 96 hours
Description: Transmission electron microscopy: Cultured primary human melanocytes were grown in Medium 254 in 6-well transwell plates. Ninety-six h post siRNA or overexpression treatment, the cells were fixed with a modified Kamovsky's fixative (2% paraformaldehyde/2.5% glutaraldehyde in 0.1 M sodium cacodylate buffer, pH 7.4) for at least 2 h on a gentle rotator, followed by rinsing several times with 0.1 M cacodylate buffer. Then, the cells were treated with 1% osmium tetroxide/0.1 M cacodylate buffer for 1 h, rinsed thoroughly in 0.1 M cacodylate buffer, scraped, and the cell suspensions were transferred into 15 ml centrifuge tubes and centrifuged (3,000 rpm) for 15 min at 4° C.). Pelleted material was embedded in 2% agarose, dehydrated through an ethanol gradient (series of solutions from 30% to 100% ethanol), dehydrated briefly in 100% propylene oxide, then allowed to infiltrate overnight on a gentle rotator in a 1:1 mix of propylene oxide and Eponate resin (Ted Pella, Inc., kit with DMP30, #18010′). The following day, specimens were transferred into fresh 100% Eponate resin for 2-3 hours, then embedded in flat molds in 100% fresh Eponate resin, and embeddings were allowed to polymerize for 24-48 h at 60° C. Thin (70 nm) sections were cut using a Leica EM UC7 ultramicrotome, collected onto formvar-coated grids, stained with 2% uranyl acetate and Reynold's lead citrate, and examined in a JEOL JEM 1011 transmission electron microscope at 80 kV. Images were collected using an AMT digital imaging system with proprietary image capture software (Advanced Microscopy Techniques, Danvers, MA). Measurements of distances between melanosomes and mitochondria were quantified in FIJI (ImageJ) (Schindelin et al., 2012) by applying a customized macro to TEM micrographs. Melanosomes (N=˜50) were randomly selected for each condition within the whole image data set. Thirty Euclidean distances from the melanosome surface to the closest mitochondria surface were measured in nm. From these 30 single measurements the mean was calculated to give a final single mean value per melanosome-mitochondria event. A total of ˜50 events (N) were quantified per condition. Data were plotted and statistically analyzed using Prism 8 (Version 8.4.3). […] Cell area (μm^2), number of melanosome-mitochondria contacts, and number of mitochondria were quantified in FIJI (ImageJ) using polygon and multi-point selection tools. Melanosome identification and quantification were performed with images at 40,000× magnification or higher. […] All identifiable melanosomes in 4 cells per condition were quantified and classified, and the proportions of each stage were normalized to cell cytosolic area (determined by ImageJ).

murine Melan-A cells = assay: Melanin content of Melan-A cells with NNT inhibitors; type: cell-based, mouse; conditions: 2 mM, FIG. 3A
Description: Murine Melan-A (Bennett et al., 1987) cells were obtained from the Wellcome Trust Functional Genomics Cell Bank. Melan-A cells were grown in RPMI 1640 supplemented with 10% FBS or FetalPlex (Gemini Bio-Products, #100-602), 100,000 U/L penicillin, 100 mg/L streptomycin sulphate, 100× Glutamax, and 200 nM TPA.
In vitro culture with NNT inhibitors: 2,3-Butanedione 97% (2,3 BD) (Sigma Aldrich, #B85307) (1 μM, 10 μM, 100 μM, 2 mM), N,N-Dicyclohexylcarbodiimide (DCC) (Sigma Aldrich, #D80002) (1 mM, 2 mM, 10 mM), and Palmitoyl coenzyme A lithium salt (Sigma Aldrich, #P9716) (10 μM, 2 mM) were reconstituted with DMSO (American Type Culture Collection, 4-X).
as §1, with “Melanin” for “sIRNA transfection: A single treatment of 10 nmol/L of siRNA was delivered to a 60% confluent culture by transfection with Lipofectamine RNAiMAX (Life Technologies, #13778150) according to the manufacturer's recommendations. After 48-72 h of transfection, total RNA or protein was harvested. Melanin”

[3] = tested on: human melanocytes, dermal fibroblasts, and keratinocytes; assay: Cell viability of human skin cells with NNT inhibitors; type: cell-based; conditions: up to 10 μM, FIG. 10B
Description: Primary human keratinocytes were cultured in EpiLife® medium supplemented with human keratinocyte growth supplement (HKGS, ThermoFisher Scientific). Primary human fibroblasts were cultured in medium 106 supplemented with low serum growth supplement (LSGS, ThermoFisher Scientific). 10^6 and […] cells were plated per well of 6-well and 96-well plates, respectively. Drugs indicated in the figure legends were dissolved in DMSO and added 1:1000 to the culture media for 24 h at the concentrations indicated.
Cell viability assay: Human melanoma cell lines and isolated primary cultured human melanocytes were propagated and tested in early passage (Passages 7 to 9). The effects of NNT inhibitors (2,3BD, DCC, and Palmitoyl coenzyme A lithium salt) on cell viability were evaluated by the CellTiter-Glo Luminescent Cell Viability Assay (Promega, #G7570) and measurement of luminescence was performed on an EnVision 2104 Multilabel Reader (PerkinElmer). Human melanoma cell lines and primary melanocytes were plated on 96-well white plates (10,000 cells/well) and were treated with the NNT inhibitors at the indicated concentrations for 24 h.

human skin explants [4] = assay: Pigmentation of human skin explants with topical NNT inhibitors; conditions: human skin explants, data not shown

OO [H2O2, Hydrogen peroxide]
NNT protein levels (NNT): did not impact NNT protein levels

CCCCC(CC)CN1CN(CC(CC)CCCC)CC(C)(N)C1 (centres unmarked) [Hexetidine, 1,3-bis(2-ethylhexyl)-5-methyl-1,3-diazinan-5-amine]
ability to depigment skin (human skin explants [1]): depigmenting effects | depigmentation of human skin (human skin): successful depigmentation | irritation (human skin): without significant irritation

CC1(C)CC(NC(=O)C[P+](c2ccccc2)(c2ccccc2)c2ccccc2)CC(C)(C)N1[O] [MitoTEMPO]
siNNT-mediated increase in pigmentation (UACC257 cells): inhibited the siNNT-mediated increase in pigmentation | siNNT-increased tyrosinase protein stability (tyrosinase): prevented | siNNT-induced melanosome maturation [2]: prevented the siNNT-induced phenotype | total number of melanosomes per um^2 [2]: not altered | NNT protein levels (NNT): did not impact NNT protein levels

CC(=O)N[C@@H](CS)C(=O)O [NAC, N-acetylcysteine]
siNNT-mediated increase in pigmentation (UACC257 cells): inhibited the siNNT-mediated increase in pigmentation | siNNT-increased tyrosinase protein stability (tyrosinase): prevented | siNNT-induced melanosome maturation [2]: prevented the siNNT-induced phenotype | total number of melanosomes per um^2 [2]: not altered | NNT protein levels (NNT): did not impact NNT protein levels

NC(=O)C1=CN([C@@H]2O[C@H](COP(=O)(O)OP(=O)(O)OC[C@H]3O[C@@H](n4cnc5c(N)ncnc54)[C@H](OP(=O)(O)O)[C@@H]3O)[C@@H](O)[C@H]2O)C=CC1 [NADPH, β-nicontinamide adenine dinucleotide 2′-phosphate]
siNNT-mediated increase in pigmentation (UACC257 cells): inhibited the siNNT-mediated increase in pigmentation | siNNT-increased tyrosinase protein stability (tyrosinase): prevented

CCCCCCCCCCCCCCCC(=O)SCCNC(=O)CCNC(=O)[C@H](O)C(C)(C)COP(=O)(O)OP(=O)(O)OC[C@H]1O[C@@H](n2cnc3c(N)ncnc32)[C@H](O)[C@@H]1OP(=O)(O)O.[Li] [Palmitoyl-CoA, Palmitoyl coenzyme A lithium salt]
melanin content (murine Melan-A cells): not | toxicity (viability) [3]: no significant toxicity | effect on pigmentation (human skin explants [4]): no effect on pigmentation | penetration of the epidermis (human skin explants [4]): did not penetrate the epidermis
